From article PMC2697495 (The Journal of pharmacy and pharmacology, 2008)
Marks after values point to notes of the source that are not given here.

Legend:
[1] = molecular target: endogenous β-glucuronidase, human lung microsomes (Homo sapiens, UniProt P08236); assay: Estradiol glucuronide hydrolysis by human lung microsomes; settings: lung microsomes 0.5 mg/ml; without saccharolactone; E-3-G 100 μM, E-17-G 200 μM; n=3
[2] = molecular target: T1, endogenous β-glucuronidase, pooled human liver microsomes (Homo sapiens, UniProt P08236); assay: Estradiol glucuronide hydrolysis; settings: for percent glucuronide remaining after 6 hours: pHLM 0.5 mg/ml, E-3-G 100 μM, E-17-G 200 μM, n=3; for Nmoles degraded as a % of nmoles formed: pHLMs; for Nmoles degraded in 6 hours: pHLMs 0.5 mg protein/ml, estradiol glucuronide without UDPGA
T1 sequence (P08236 23-651): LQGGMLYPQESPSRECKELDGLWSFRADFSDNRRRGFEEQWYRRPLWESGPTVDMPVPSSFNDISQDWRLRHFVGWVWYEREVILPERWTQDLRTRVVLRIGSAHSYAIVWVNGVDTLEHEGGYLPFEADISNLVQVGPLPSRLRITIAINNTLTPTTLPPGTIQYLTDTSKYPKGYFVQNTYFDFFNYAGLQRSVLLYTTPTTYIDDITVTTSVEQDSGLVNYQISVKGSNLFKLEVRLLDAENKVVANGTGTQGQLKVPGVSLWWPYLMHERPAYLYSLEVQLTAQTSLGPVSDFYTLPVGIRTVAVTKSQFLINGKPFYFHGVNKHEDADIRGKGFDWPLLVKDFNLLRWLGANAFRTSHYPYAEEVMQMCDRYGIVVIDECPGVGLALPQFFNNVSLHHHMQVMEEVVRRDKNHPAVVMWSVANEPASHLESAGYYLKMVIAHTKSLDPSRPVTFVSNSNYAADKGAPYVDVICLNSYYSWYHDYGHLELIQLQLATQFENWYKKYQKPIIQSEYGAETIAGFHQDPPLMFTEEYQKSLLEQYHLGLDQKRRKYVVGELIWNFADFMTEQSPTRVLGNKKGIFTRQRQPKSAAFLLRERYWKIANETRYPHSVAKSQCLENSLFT

human kidney microsomes = assay: Estradiol glucuronide formation in 6 hours by human kidney microsomes; type: in vitro ADME; settings: for Apparent nmoles formed in 6 hours: kidney microsomes 0.5 mg protein/ml, β-estradiol 100 μM and UDPGA, mean of triplicate; for Predicted actual nmoles formed in 6 hours: kidney microsomes, apparent formed plus degraded
[3] = test system: endogenous β-glucuronidase, human kidney microsomes; assay: Estradiol glucuronide hydrolysis by human kidney microsomes; settings: for Nmoles degraded as a % of nmoles formed: kidney microsomes; for Nmoles degraded in 6 hours: kidney microsomes 0.5 mg protein/ml, estradiol glucuronide without UDPGA; for percent glucuronide remaining after 6 hours: kidney microsomes 0.5 mg/ml, without saccharolactone, E-3-G 100 μM, E-17-G 200 μM, n=3
[4] = test system: endogenous β-glucuronidase, human intestinal microsomes; assay: Estradiol glucuronide hydrolysis by human intestinal microsomes; settings: for Nmoles degraded as a % of nmoles formed: intestinal microsomes; for Nmoles degraded in 6 hours: intestinal microsomes 0.5 mg protein/ml, estradiol glucuronide without UDPGA; for percent glucuronide remaining after 6 hours: intestine microsomes 0.5 mg/ml, without saccharolactone, E-3-G 100 μM, E-17-G 200 μM, n=3
[5] = test system: pooled human liver microsomes (pHLMs); settings: pHLMs 0.5 mg protein/ml; β-estradiol 100 μM and UDPGA; mean of triplicate
[6] = Estradiol glucuronide stability in phosphate buffer; settings: 50 mM phosphate buffer pH 7.5, 37 °C, no enzyme; without saccharolactone; E-3-G 100 μM, E-17-G 200 μM; n=3
[7] = test system: human intestinal microsomes; assay: Estradiol glucuronide formation in 6 hours by human intestinal microsomes; type: in vitro ADME; settings: for Apparent nmoles formed in 6 hours: intestinal microsomes 0.5 mg protein/ml, β-estradiol 100 μM and UDPGA, mean of triplicate; for Predicted actual nmoles formed in 6 hours: intestinal microsomes, apparent formed plus degraded
[8] = test system: endogenous β-glucuronidase, HEK293 vector control; assay: Estradiol glucuronide hydrolysis by HEK293 vector control cell microsomes; type: in vitro ADME, human; settings: HEK293 control 0.25 mg/ml; without saccharolactone; E-3-G 100 μM, E-17-G 200 μM; n=3
microsomes = settings: 50 μg alamethicin per mg microsomal protein, ref Fisher et al 2000; cited from earlier work

Molecule: C[C@]12CC[C@@H]3c4ccc(O[C@@H]5O[C@H](C(=O)O)[C@@H](O)[C@H](O)[C@H]5O)cc4CC[C@H]3[C@@H]1CC[C@@H]2O [E-3-G, estradiol 3-glucuronide]
- percent glucuronide remaining after 6 hours [1]: 85±6%
- percent glucuronide remaining after 6 hours ([2]; with 10 mM saccharolactone): 84±2 ^a %
- percent glucuronide remaining after 6 hours ([2]; without saccharolactone): 82±1 ^a^, ^b %
- Nmoles degraded as a % of nmoles formed [2]: 9.30%
- Nmoles degraded in 6 hours [2]: 0.36 nmol
- Apparent nmoles formed in 6 hours (human kidney microsomes): 2.99 nmol
- Predicted actual nmoles formed in 6 hours (human kidney microsomes): 2.99 nmol
- Nmoles degraded as a % of nmoles formed [3]: 0%
- Nmoles degraded in 6 hours [3]: 0 nmol
- percent glucuronide remaining after 6 hours [3]: 104±1 ^a^, ^b %
- Nmoles degraded as a % of nmoles formed [4]: 0%
- Nmoles degraded in 6 hours [4]: 0 nmol
- percent glucuronide remaining after 6 hours [4]: 104±3%
- Apparent nmoles formed in 6 hours [5]: 3.51 nmol
- percent glucuronide remaining after 6 hours [6]: 101±5%
- Apparent nmoles formed in 6 hours [7]: 16.7 nmol
- Predicted actual nmoles formed in 6 hours [7]: 16.7 nmol
- percent glucuronide remaining after 6 hours [8]: 102±4%

Molecule: C[C@]12CC[C@@H]3c4ccc(O)cc4CC[C@H]3[C@@H]1CC[C@@H]2O[C@@H]1O[C@H](C(=O)O)[C@@H](O)[C@H](O)[C@H]1O [E-17-G, estradiol 17-glucuronide]
- percent glucuronide remaining after 6 hours [1]: 92±6%
- percent glucuronide remaining after 6 hours ([2]; with 10 mM saccharolactone): 84±3%
- percent glucuronide remaining after 6 hours ([2]; without saccharolactone): 86±2 ^b %
- Nmoles degraded in 6 hours [2]: 0.29 nmol
- Nmoles degraded as a % of nmoles formed ([2]; listed as Estradiol-17-Glucuronide): 19%
- Nmoles degraded as a % of nmoles formed ([2]; listed as estradiol-17 glucuronide): 19%
- Apparent nmoles formed in 6 hours (human kidney microsomes): 1.11 nmol
- Predicted actual nmoles formed in 6 hours (human kidney microsomes): 1.11 nmol
- Nmoles degraded as a % of nmoles formed [3]: 0%
- Nmoles degraded in 6 hours [3]: 0 nmol
- percent glucuronide remaining after 6 hours [3]: 104±3%
- Nmoles degraded as a % of nmoles formed [4]: 0%
- Nmoles degraded in 6 hours [4]: 0 nmol
- percent glucuronide remaining after 6 hours [4]: 110±4 ^b %
- Apparent nmoles formed in 6 hours [5]: 1.23 nmol
- percent glucuronide remaining after 6 hours [6]: 102±13%
- Apparent nmoles formed in 6 hours [7]: 0.58 nmol
- Predicted actual nmoles formed in 6 hours [7]: 0.58 nmol
- percent glucuronide remaining after 6 hours [8]: 104±3%

Molecule: alamethicin
- conjugation rate relative to that in absence of alamethicin (microsomes): 2 to 3 times
